Source: ChEMBL document CHEMBL5696441 (Nat Chem Biol, 2011)

Assays:
[1] = target: Cyclin-dependent kinase 5/CDK5 activator 1 (Homo sapiens) (UniProt Q00535+Q15078); test: Inhibition of human CDK5/p25NCK assessed as residual activity at 1 uM using RBER-CHKtide as substrate in presence of 33P-ATP by ProQinase assay relative to control; type: protein-complex assay
[2] = target: Homeodomain-interacting protein kinase 2 (Homo sapiens) (UniProt Q9H2X6); test: Inhibition of human HIPK2 assessed as residual activity at 1 uM using RBER-CHKtide as substrate in presence of 33P-ATP by ProQinase assay relative to control
TAK1/TAB1 (Homo sapiens) = TAK1/TAB1 (Homo sapiens) (UniProt Q15750+O43318); test: Inhibition of human MAP3K7/MAP3K7IP1 assessed as residual activity at 1 uM using RB-S6P as substrate in presence of 33P-ATP by ProQinase assay relative to control; type: protein-complex assay
[3] = target: Proto-oncogene tyrosine-protein kinase ROS (Homo sapiens) (UniProt P08922); test: Inhibition of ROS1 (unknown origin) assessed as remaining activity at 1 uM by Kinome scan method relative to control
[4] = target: Tyrosine-protein kinase JAK1 (Homo sapiens) (UniProt P23458); test: Inhibition of JAK1 JH2 domain (unknown origin) assessed as remaining activity at 1 uM by Kinome scan method relative to control
Sequence of Tyrosine-protein kinase JAK1 (Homo sapiens) (P23458 whole entry, the tested form may be a part): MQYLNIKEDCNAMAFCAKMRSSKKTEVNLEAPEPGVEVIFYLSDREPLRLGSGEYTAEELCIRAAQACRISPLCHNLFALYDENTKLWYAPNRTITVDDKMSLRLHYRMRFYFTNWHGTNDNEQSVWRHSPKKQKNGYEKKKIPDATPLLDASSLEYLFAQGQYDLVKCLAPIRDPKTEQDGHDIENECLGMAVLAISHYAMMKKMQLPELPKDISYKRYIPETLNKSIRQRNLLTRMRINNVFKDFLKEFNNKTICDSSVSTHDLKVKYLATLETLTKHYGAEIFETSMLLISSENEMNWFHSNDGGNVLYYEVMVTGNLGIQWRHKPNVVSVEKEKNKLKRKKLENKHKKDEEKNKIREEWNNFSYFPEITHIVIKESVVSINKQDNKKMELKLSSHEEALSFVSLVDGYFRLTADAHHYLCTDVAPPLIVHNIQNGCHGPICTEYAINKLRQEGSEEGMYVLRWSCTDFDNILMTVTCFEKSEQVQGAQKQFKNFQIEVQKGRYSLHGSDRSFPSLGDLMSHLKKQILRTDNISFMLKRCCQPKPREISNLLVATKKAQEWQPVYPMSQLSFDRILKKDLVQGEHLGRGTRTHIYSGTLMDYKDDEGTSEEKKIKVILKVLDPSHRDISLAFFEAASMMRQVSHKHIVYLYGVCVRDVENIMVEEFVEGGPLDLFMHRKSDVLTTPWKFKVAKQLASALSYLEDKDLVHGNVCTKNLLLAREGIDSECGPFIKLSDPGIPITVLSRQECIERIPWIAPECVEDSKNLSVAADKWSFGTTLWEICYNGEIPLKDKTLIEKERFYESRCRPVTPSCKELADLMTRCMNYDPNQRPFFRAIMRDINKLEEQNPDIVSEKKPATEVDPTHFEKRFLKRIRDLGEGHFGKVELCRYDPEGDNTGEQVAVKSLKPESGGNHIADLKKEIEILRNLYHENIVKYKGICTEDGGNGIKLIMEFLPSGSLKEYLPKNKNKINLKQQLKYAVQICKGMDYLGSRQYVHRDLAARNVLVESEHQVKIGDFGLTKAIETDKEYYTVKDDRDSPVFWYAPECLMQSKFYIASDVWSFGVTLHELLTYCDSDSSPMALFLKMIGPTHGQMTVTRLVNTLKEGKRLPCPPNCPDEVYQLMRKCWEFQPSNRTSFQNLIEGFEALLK

[5] = target: Serine/threonine-protein kinase PAK 2 (Homo sapiens) (UniProt Q13177); test: Inhibition of human PAK2 assessed as residual activity at 1 uM using bio-4xCHKT as substrate in presence of 33P-ATP by ProQinase assay relative to control
[6] = target: Calcium/calmodulin-dependent protein kinase type II subunit alpha (Homo sapiens) (UniProt Q9UQM7); test: Inhibition of human CAMK2A assessed as residual activity at 1 uM using RBER-CHKtide as substrate in presence of 33P-ATP by ProQinase assay relative to control
Sequence of Calcium/calmodulin-dependent protein kinase type II subunit alpha (Homo sapiens) (Q9UQM7 whole entry): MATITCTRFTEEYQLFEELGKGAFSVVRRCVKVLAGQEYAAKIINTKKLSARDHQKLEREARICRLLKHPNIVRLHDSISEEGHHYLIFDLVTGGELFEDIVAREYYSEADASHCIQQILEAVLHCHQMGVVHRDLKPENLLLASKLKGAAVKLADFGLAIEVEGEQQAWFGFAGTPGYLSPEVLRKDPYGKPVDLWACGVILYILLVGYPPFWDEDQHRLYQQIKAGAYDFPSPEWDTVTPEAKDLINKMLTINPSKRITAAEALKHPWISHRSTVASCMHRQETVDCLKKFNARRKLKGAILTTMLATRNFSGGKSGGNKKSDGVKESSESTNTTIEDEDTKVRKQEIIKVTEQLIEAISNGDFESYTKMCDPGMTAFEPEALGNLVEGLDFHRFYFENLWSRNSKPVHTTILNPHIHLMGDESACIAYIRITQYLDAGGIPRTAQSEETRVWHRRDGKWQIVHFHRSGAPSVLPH

[7] = target: Mitogen-activated protein kinase kinase kinase 2 (Homo sapiens) (UniProt Q9Y2U5); test: Inhibition of human MEKK2 assessed as residual activity at 1 uM using casein as substrate in presence of 33P-ATP by ProQinase assay relative to control
Sequence of Mitogen-activated protein kinase kinase kinase 2 (Homo sapiens) (Q9Y2U5 whole entry): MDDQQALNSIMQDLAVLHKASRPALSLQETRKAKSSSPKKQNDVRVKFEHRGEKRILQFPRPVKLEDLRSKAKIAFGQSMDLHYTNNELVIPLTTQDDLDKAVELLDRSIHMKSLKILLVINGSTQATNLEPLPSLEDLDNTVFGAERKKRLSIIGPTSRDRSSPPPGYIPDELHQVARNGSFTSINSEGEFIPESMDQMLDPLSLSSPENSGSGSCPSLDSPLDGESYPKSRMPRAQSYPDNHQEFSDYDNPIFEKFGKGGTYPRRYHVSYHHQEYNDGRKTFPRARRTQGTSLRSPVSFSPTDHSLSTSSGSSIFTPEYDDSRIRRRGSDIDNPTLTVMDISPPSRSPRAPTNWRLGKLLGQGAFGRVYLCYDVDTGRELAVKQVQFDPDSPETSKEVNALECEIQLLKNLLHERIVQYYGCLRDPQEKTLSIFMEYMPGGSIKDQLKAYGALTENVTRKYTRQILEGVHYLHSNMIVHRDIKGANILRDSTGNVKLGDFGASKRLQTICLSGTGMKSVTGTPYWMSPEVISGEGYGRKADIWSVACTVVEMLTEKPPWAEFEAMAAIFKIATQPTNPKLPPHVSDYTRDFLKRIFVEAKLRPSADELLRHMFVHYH

Homo sapiens = organism: Homo sapiens; test: Inhibition of human PKA assessed as residual activity at 1 uM using bio-4xCHKT as substrate in presence of 33P-ATP by ProQinase assay relative to control
[8] = target: Activin receptor type-1 (Homo sapiens) (UniProt Q04771); test: Inhibition of ACVR1 (unknown origin) assessed as remaining activity at 1 uM by Kinome scan method relative to control
[9] = target: Ribosomal protein S6 kinase alpha-5 (Homo sapiens) (UniProt O75582); test: Inhibition of human RPS6KA5 assessed as residual activity at 1 uM using RBER-CHKtide as substrate in presence of 33P-ATP by ProQinase assay relative to control
[10] = target: Ribosomal protein S6 kinase alpha-2 (Homo sapiens) (UniProt Q15349); test: Inhibition of N-terminal kinase domain RPS6KA2 (unknown origin) assessed as remaining activity at 1 uM by Kinome scan method relative to control
[11] = target: LIM domain kinase 1 (Homo sapiens) (UniProt P53667); test: Inhibition of human LIMK1 assessed as residual activity at 1 uM using CFL2 as substrate in presence of 33P-ATP by ProQinase assay relative to control
[12] = target: Mitogen-activated protein kinase kinase kinase 2 (Homo sapiens) (UniProt Q9Y2U5); test: Inhibition of MAP3K2 (unknown origin) assessed as remaining activity at 1 uM by Kinome scan method relative to control
[13] = Anti-inflammatory activity against human derived medium respond PBMC cells assessed as inhibition in stimulated MCP-1 chemokine release incubated for 2 hrs in the presence of LPS/SEB/aCD28 by Luminex based sandwich immunoassay; type: functional, cell-based
[14] = target: Ribosomal protein S6 kinase alpha-6 (Homo sapiens) (UniProt Q9UK32); test: Inhibition of human RPS6KA6 assessed as residual activity at 1 uM using RBER-GSK3(14-27) as substrate in presence of 33P-ATP by ProQinase assay relative to control
[15] = target: Beta-adrenergic receptor kinase 1 (Homo sapiens) (UniProt P25098); test: Inhibition of human GRK2 assessed as residual activity at 1 uM using casein as substrate in presence of 33P-ATP by ProQinase assay relative to control
[16] = target: Rhodopsin kinase GRK7 (Homo sapiens) (UniProt Q8WTQ7); test: Inhibition of GRK7 (unknown origin) assessed as remaining activity at 1 uM by Kinome scan method relative to control
[17] = target: Serine/threonine-protein kinase SIK2 (Homo sapiens) (UniProt Q9H0K1); test: Inhibition of human SNF1LK2 assessed as residual activity at 1 uM using RBER-CHKtide as substrate in presence of 33P-ATP by ProQinase assay relative to control
[18] = target: Interleukin-1 receptor-associated kinase 4 (Homo sapiens) (UniProt Q9NWZ3); test: Inhibition of human IRAK4 assessed as residual activity at 1 uM using RB-CTF as substrate in presence of 33P-ATP by ProQinase assay relative to control
Sequence of Interleukin-1 receptor-associated kinase 4 (Homo sapiens) (Q9NWZ3 whole entry): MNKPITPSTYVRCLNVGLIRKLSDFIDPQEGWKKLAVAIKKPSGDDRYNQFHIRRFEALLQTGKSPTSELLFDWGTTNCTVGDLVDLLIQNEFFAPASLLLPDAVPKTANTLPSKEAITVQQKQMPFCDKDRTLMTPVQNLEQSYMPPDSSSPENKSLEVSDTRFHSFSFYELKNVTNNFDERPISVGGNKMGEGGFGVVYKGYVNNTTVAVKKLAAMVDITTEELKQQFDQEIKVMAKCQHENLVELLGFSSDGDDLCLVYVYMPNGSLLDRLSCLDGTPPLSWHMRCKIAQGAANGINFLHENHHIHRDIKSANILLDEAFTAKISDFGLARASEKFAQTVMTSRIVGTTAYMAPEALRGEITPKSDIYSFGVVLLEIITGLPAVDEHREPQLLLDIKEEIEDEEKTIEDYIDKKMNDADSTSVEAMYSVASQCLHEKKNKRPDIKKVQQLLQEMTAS

[19] = target: Epidermal growth factor receptor (Homo sapiens) (UniProt P00533); test: Inhibition of EGFR (unknown origin) assessed as remaining activity at 1 uM by Kinome scan method relative to control
[20] = target: Tyrosine-protein kinase JAK1 (Homo sapiens) (UniProt P23458); test: Inhibition of JAK1 JH1 domain (unknown origin) assessed as remaining activity at 1 uM by Kinome scan method relative to control
[21] = target: Tyrosine-protein kinase receptor UFO (Homo sapiens) (UniProt P30530); test: Inhibition of AXL (unknown origin) assessed as remaining activity at 1 uM by Kinome scan method relative to control
[22] = target: Tyrosine-protein kinase ABL2 (Homo sapiens) (UniProt P42684); test: Inhibition of ABL2 (unknown origin) assessed as remaining activity at 1 uM by Kinome scan method relative to control
[23] = target: Serine/threonine-protein kinase MARK2 (Homo sapiens) (UniProt Q7KZI7); test: Inhibition of human MARK2 assessed as residual activity at 1 uM using RBER-CHKtide as substrate in presence of 33P-ATP by ProQinase assay relative to control
Sequence of Serine/threonine-protein kinase MARK2 (Homo sapiens) (Q7KZI7 whole entry): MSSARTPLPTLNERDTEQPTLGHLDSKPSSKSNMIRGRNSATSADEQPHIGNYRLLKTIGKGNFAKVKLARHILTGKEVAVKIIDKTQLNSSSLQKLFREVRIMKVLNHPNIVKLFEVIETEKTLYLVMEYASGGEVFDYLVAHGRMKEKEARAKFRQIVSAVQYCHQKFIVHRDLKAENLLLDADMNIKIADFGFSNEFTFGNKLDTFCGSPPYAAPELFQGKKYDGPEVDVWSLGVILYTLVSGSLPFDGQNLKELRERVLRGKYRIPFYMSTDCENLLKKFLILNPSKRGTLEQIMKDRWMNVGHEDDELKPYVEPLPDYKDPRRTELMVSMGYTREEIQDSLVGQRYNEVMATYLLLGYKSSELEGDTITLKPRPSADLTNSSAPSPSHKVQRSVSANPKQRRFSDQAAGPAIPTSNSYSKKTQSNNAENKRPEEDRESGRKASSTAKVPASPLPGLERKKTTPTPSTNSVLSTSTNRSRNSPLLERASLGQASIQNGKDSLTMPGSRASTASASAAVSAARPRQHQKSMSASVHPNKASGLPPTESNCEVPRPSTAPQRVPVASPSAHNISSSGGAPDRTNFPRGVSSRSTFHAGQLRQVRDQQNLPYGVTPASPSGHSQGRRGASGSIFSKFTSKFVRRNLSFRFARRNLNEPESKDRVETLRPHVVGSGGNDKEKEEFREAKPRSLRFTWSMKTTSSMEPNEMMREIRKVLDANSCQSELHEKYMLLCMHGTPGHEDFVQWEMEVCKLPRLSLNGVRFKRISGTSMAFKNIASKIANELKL

[24] = Anti-inflammatory activity against human derived medium respond PBMC cells assessed as inhibition in stimulated IL-1ra cytokine release incubated for 2 hrs in the presence of LPS/SEB/aCD28 by Luminex based sandwich immunoassay; type: functional, cell-based
[25] = tested on: Epidermal growth factor receptor (Homo sapiens), P00533 [UNDEFINED MUTATION]; test: Inhibition of human EGFR d747-749/A750P mutant assessed as residual activity at 1 uM using PolyEY as substrate in presence of 33P-ATP by ProQinase assay relative to control
Sequence of Epidermal growth factor receptor (Homo sapiens), P00533 [UNDEFINED MUTATION] (P00533 whole entry, looked up, stated change not applied): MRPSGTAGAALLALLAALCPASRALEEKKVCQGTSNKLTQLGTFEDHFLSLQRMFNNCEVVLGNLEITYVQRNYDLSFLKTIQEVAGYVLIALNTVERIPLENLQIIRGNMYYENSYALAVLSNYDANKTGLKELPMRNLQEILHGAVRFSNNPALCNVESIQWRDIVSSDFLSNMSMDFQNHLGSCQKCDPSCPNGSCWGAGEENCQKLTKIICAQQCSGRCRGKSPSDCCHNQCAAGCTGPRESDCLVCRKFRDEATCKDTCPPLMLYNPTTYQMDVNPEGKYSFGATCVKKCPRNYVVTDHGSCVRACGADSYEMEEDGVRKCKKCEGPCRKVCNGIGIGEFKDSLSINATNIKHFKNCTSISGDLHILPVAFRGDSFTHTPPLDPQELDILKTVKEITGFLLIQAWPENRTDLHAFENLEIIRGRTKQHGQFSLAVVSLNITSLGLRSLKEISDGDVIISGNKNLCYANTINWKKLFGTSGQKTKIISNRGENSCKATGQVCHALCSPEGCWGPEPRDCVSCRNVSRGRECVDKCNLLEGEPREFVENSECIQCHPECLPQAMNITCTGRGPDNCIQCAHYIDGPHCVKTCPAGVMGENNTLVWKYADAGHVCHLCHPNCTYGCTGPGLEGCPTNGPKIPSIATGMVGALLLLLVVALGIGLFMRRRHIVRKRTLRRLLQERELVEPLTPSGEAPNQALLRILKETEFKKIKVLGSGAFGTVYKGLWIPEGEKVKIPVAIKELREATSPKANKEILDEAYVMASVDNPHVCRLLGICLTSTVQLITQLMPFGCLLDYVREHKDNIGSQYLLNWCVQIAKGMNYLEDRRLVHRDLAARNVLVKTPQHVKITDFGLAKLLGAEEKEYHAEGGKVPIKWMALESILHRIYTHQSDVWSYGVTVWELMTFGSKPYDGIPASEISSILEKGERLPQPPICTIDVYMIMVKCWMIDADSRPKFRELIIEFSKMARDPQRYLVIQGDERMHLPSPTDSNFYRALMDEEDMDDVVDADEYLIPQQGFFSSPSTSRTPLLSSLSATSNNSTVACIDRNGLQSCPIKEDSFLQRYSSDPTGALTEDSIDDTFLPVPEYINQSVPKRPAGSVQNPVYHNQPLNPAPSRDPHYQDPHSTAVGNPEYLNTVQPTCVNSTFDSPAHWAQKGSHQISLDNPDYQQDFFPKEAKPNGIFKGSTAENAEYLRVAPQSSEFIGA

[26] = target: Calcium/calmodulin-dependent protein kinase type II subunit alpha (Homo sapiens) (UniProt Q9UQM7); test: Inhibition of CAMK2A (unknown origin) assessed as remaining activity at 1 uM by Kinome scan method relative to control
[27] = tested on: Epidermal growth factor receptor (Homo sapiens), P00533 [UNDEFINED MUTATION]; test: Inhibition of EGFR L747-E749del/A750P mutant (unknown origin) assessed as remaining activity at 1 uM by Kinome scan method relative to control

O=C1c2ccc(Nc3ccc(F)cc3F)cc2CCc2ccc(OC[C@H](O)CO)cc21 [Skepinone-L]
Activity [1]: 99% | Activity [2]: 104% | Activity (TAK1/TAB1 (Homo sapiens)): 80% | Activity [3]: 99% | Activity [4]: 86% | Activity [5]: 83% | Activity [6]: 83% | Activity [7]: 89% | Activity (Homo sapiens): 94% | Activity [8]: 99% | Activity [9]: 77% | Activity [10]: 100% | Activity [11]: 109% | Activity [12]: 100% | IC50 [13]: 0.09 µM | Activity [14]: 85% | Activity [15]: 83% | Activity [16]: 100% | Activity [17]: 86% | Activity [18]: 104% | Activity [19]: 98% | Activity [20]: 100% | Activity [21]: 94% | Activity [22]: 100% | Activity [23]: 105% | IC50 [24]: 0.87 µM | Activity [25]: 96% | Activity [26]: 100% | Activity [27]: 82%
